We go through 21 molecules from PubChem BioAssay AID330 (DTP/NCI, 2004).

Several values for one entry are separate records, joined by “and”; a condition that tells them apart may be missing. Identical values can stand only once. Toxic doses and inconclusive results are not listed.

This experiment concerns P388 leukemia ip, CD2F1 mice, survival T/C. In words: NCI In Vivo Anticancer Drug Screen. Data for tumor model P388 Leukemia (intraperitoneal) in CD2F1 (CDF1) mice. The following applies: endpoint: median survival time, higher = longer survival. Put shortly:
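Mice carrying the transplanted tumor received test compound or vehicle. Survival was recorded in each group, and the value is the treated-group measurement divided by that of the vehicle-treated control group.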

The mark [1] stands for this setting: dose: 100.0 mg/kg/injection, schedule: Q01DX009 (ip), vehicle: Klucel (hydroxypropylcellulose) (HPC).
[2] abbreviates: dose: 200.0 mg/kg/injection, schedule: Q01DX009 (ip), vehicle: Klucel (hydroxypropylcellulose) (HPC).
Where [3] appears, read: dose: 50.0 mg/kg/injection, schedule: Q01DX009 (ip), vehicle: saline.
Setting [4] is: dose: 100.0 mg/kg/injection, schedule: Q01DX009 (ip), vehicle: saline.
Setting [5] is: dose: 200.0 mg/kg/injection, schedule: Q01DX009 (ip), vehicle: saline.
Setting [6] is: dose: 100.0 mg/kg/injection, schedule: Q04DX002 (ip), vehicle: saline with Tween-80.
[7] abbreviates: dose: 200.0 mg/kg/injection, schedule: Q04DX002 (ip), vehicle: saline with Tween-80.
Setting [8] is: dose: 400.0 mg/kg/injection, schedule: Q04DX002 (ip), vehicle: saline with Tween-80.
Setting [9] is: dose: 60.0 mg/kg/injection, schedule: Q01DX005 (ip), vehicle: Klucel (hydroxypropylcellulose) (HPC).
The mark [10] stands for this setting: dose: 120.0 mg/kg/injection, schedule: Q01DX005 (ip), vehicle: Klucel (hydroxypropylcellulose) (HPC).
Setting [11] is: dose: 25.0 mg/kg/injection, schedule: Q01DX009 (ip), vehicle: saline with Tween-80.
[12] abbreviates: dose: 50.0 mg/kg/injection, schedule: Q01DX009 (ip), vehicle: saline with Tween-80.
Setting [13] is: dose: 100.0 mg/kg/injection, schedule: Q01DX009 (ip), vehicle: saline with Tween-80.
Setting [14] is: dose: 200.0 mg/kg/injection, schedule: Q01DX009 (ip), vehicle: saline with Tween-80.
Setting [15] is: dose: 100.0 mg/kg/injection, schedule: Q04DX003 (ip), vehicle: saline with Tween-80.
Setting [16] is: dose: 25.0 mg/kg/injection, schedule: Q04DX003 (ip), vehicle: saline with Tween-80.
[17] abbreviates: dose: 50.0 mg/kg/injection, schedule: Q04DX003 (ip), vehicle: saline with Tween-80.

For `O=C1CCC(NCCc2ccccc2)C(=O)O1` (centres undefined), the T/C is, setting by setting: (dose: 50.0 mg/kg/injection, schedule: Q01DX009 (ip), vehicle: Klucel (hydroxypropylcellulose) (HPC)) 98 % of control; under setting [1], 92 % of control; under setting [2], 103 % of control.

In the case of `COc1cccc2c1C(=O)c1c(O)c3c(c(O)c1C2=O)C[C@@](O)(C(=O)CN1CCOCC1)C[C@@H]3OC1CC(N)C(O)C(C)O1` (some centres undefined), the T/C is 116 % of control (dose: 1.3 mg/kg/injection, schedule: Q01DX001 (ip), vehicle: water); 103 % of control (dose: 1.56 mg/kg/injection, schedule: Q01DX009 (ip), vehicle: water); 114 % of control (dose: 1.8 mg/kg/injection, schedule: Q01DX001 (ip), vehicle: water); 116 % of control (dose: 2.4 mg/kg/injection, schedule: Q01DX001 (ip), vehicle: water); 115 % of control (dose: 3.13 mg/kg/injection, schedule: Q01DX009 (ip), vehicle: water); 119 % of control (dose: 3.2 mg/kg/injection, schedule: Q01DX001 (ip), vehicle: water). Besides, the T/C by setting is: (dose: 4.2 mg/kg/injection, schedule: Q01DX001 (ip), vehicle: water) 119 % of control; (dose: 5.56 mg/kg/injection, schedule: Q01DX009 (ip), vehicle: water) 156 % of control; (dose: 8.33 mg/kg/injection, schedule: Q01DX009 (ip), vehicle: water) 162 % of control; (dose: 10.0 mg/kg/injection, schedule: Q01DX001 (ip), vehicle: water) 119 % of control; (dose: 18.8 mg/kg/injection, schedule: Q01DX009 (ip), vehicle: water) 153 % of control; (dose: 50.0 mg/kg/injection, schedule: Q01DX001 (ip), vehicle: water) 162 % of control. Moreover, the T/C (dose: 100.0 mg/kg/injection, schedule: Q01DX001 (ip), vehicle: water) was 174 % of control.

`CCCCCCCCC(=O)OCCNC(=O)C(C)OC(=O)CCCCCCCC` (centres undefined): the T/C is, setting by setting: under setting [1], 96 % of control; under setting [2], 100 % of control; (dose: 400.0 mg/kg/injection, schedule: Q01DX009 (ip), vehicle: Klucel (hydroxypropylcellulose) (HPC)) 98 % of control.

`CC(Nc1ccc(Cl)cc1)S(=O)(=O)O` (centres undefined): the T/C was 106 % of control under setting [3], 100 % of control under setting [4] and 106 % of control under setting [5].

Consider `O=C1N(Cc2ccccc2)C2CCS(=O)CCC2N1Cc1ccccc1` (centres undefined), for which the T/C is 100 % of control (dose: 50.0 mg/kg/injection, schedule: Q01DX005 (ip), vehicle: saline with Tween-80); 95 % of control (dose: 100.0 mg/kg/injection, schedule: Q01DX005 (ip), vehicle: saline with Tween-80); 92 % of control (dose: 200.0 mg/kg/injection, schedule: Q01DX005 (ip), vehicle: saline with Tween-80).

As to `Cc1ccc(C(=Nc2ccccc2)c2ccccc2C)cc1`, the T/C was 91 % of control and 95 % of control (dose: 50.0 mg/kg/injection, schedule: Q04DX002 (ip), vehicle: saline with Tween-80); 104 % of control and 86 % of control under setting [6]; 87 % of control and 93 % of control under setting [7]; 86 % of control and 95 % of control under setting [8].

Regarding `CNCCN1CCC(Cc2ccccc2)CC1`, the T/C runs as follows: under setting [3], 100 % of control; under setting [4], 100 % of control.

As to `CN(CCCCn1cnc2ccccc21)N=O`, the T/C is 110 % of control (dose: 20.0 mg/kg/injection, schedule: Q01DX001 (ip), vehicle: Klucel (hydroxypropylcellulose) (HPC)); 102 % of control (dose: 40.0 mg/kg/injection, schedule: Q01DX001 (ip), vehicle: Klucel (hydroxypropylcellulose) (HPC)); 110 % of control (dose: 80.0 mg/kg/injection, schedule: Q01DX001 (ip), vehicle: Klucel (hydroxypropylcellulose) (HPC)).

On to `c1ccc(N2CN(c3ccccc3)C2)cc1`, for which the T/C by setting is: under setting [9], 88 % of control; under setting [10], 86 % of control; (dose: 240.0 mg/kg/injection, schedule: Q01DX005 (ip), vehicle: Klucel (hydroxypropylcellulose) (HPC)) 88 % of control.

As to `COc1ccc(C2[C@H](C(=O)O)c3ccccc3C(=O)N2Cc2ccccc2)cc1` (some centres undefined), the T/C runs as follows: under setting [6], 101 % of control; under setting [7], 104 % of control; under setting [8], 103 % of control.

Consider `CN(C)CC1(C)C(=O)N(C)C(=O)N(C2CCCCC2)C1=O` (centres undefined), for which the T/C is, setting by setting: under setting [11], 100 % of control; (dose: 25.0 mg/kg/injection, schedule: Q01DX009 (ip), vehicle: saline) 100 % of control; under setting [12], 107 % of control; under setting [3], 104 % of control and 105 % of control; under setting [13], 107 % of control; under setting [4], 113 % of control. Besides, the T/C by setting is: under setting [14], 117 % of control; under setting [5], 122 % of control.

On to `CN=C1c2ccccc2C2(c3ccccc3)C1N2C` (centres undefined), for which the T/C under setting [15] was 104 % of control and the T/C (dose: 200.0 mg/kg/injection, schedule: Q04DX003 (ip), vehicle: saline with Tween-80) is 100 % of control.

For the molecule `C[C@]12CC[C@H](O)C[C@@H]1CC[C@@H]1[C@@H]2C(=O)C[C@]2(C)C3=CC(=O)O[C@H]3C[C@@H]12`, the T/C is 109 % of control under setting [11]; 117 % of control under setting [16]; 118 % of control under setting [12]; 104 % of control under setting [17]; 86 % of control under setting [13]; 113 % of control and 95 % of control under setting [15].

For `COc1cc(/C=C\C=O)cc(OC)c1OC`, the T/C reads like this: under setting [6], 99 % of control; under setting [7], 110 % of control; under setting [8], 108 % of control.

On to `C=C(C(=O)OC)C1C=CC2OC(C)(C)OCC2O1` (centres undefined), for which the T/C by setting is: (dose: 60.0 mg/kg/injection, schedule: Q01DX005 (ip), vehicle: saline) 113 % of control; (dose: 120.0 mg/kg/injection, schedule: Q01DX005 (ip), vehicle: saline) 106 % of control; (dose: 240.0 mg/kg/injection, schedule: Q01DX005 (ip), vehicle: saline) 109 % of control.

Regarding `NNC(=O)Cc1cccc2ccc(Cl)cc12`, the T/C under setting [9] is 92 % of control and the T/C under setting [10] is 88 % of control.

As to `CC1CN(C2CCCCC2)CO1` (centres undefined), the T/C was 104 % of control and 105 % of control (dose: 12.5 mg/kg/injection, schedule: Q01DX005 (ip), vehicle: saline); 104 % of control and 112 % of control (dose: 25.0 mg/kg/injection, schedule: Q01DX005 (ip), vehicle: saline); 117 % of control and 118 % of control and 124 % of control (dose: 50.0 mg/kg/injection, schedule: Q01DX005 (ip), vehicle: saline); 121 % of control and 124 % of control (dose: 100.0 mg/kg/injection, schedule: Q01DX005 (ip), vehicle: saline); 109 % of control (dose: 200.0 mg/kg/injection, schedule: Q01DX005 (ip), vehicle: saline).

Consider `CN(N=O)C(=O)Nc1ccc(C(=O)O)cc1`, for which the T/C is, setting by setting: under setting [11], 181 % of control; under setting [16], 155 % of control; under setting [12], 181 % of control; under setting [17], 180 % of control; (dose: 66.0 mg/kg/injection, schedule: Q04DX003 (ip), vehicle: saline with Tween-80) 159 % of control; under setting [15], 172 % of control and 200 % of control.

Consider `COc1ccc2c(c1)c(CBr)c(C)c[n+]2[O-]`, for which the T/C (dose: 6.25 mg/kg/injection, schedule: Q01DX005 (ip), vehicle: Klucel (hydroxypropylcellulose) (HPC)) was 104 % of control; the T/C (dose: 12.5 mg/kg/injection, schedule: Q01DX005 (ip), vehicle: Klucel (hydroxypropylcellulose) (HPC)) is 102 % of control; the T/C (dose: 50.0 mg/kg/injection, schedule: Q01DX005 (ip), vehicle: Klucel (hydroxypropylcellulose) (HPC)) was 86 % of control.

Turning to `CC(C)(C)NC(=O)c1cccc(C(N)=O)n1`, the T/C by setting is: (dose: 60.0 mg/kg/injection, schedule: Q01DX005 (ip), vehicle: saline with Tween-80) 94 % of control; (dose: 120.0 mg/kg/injection, schedule: Q01DX005 (ip), vehicle: saline with Tween-80) 93 % of control; (dose: 240.0 mg/kg/injection, schedule: Q01DX005 (ip), vehicle: saline with Tween-80) 97 % of control.

Turning to `CN(c1ccccc1)c1c2c(oc(=O)c1Cl)-c1ccccc1SC2`, the T/C was 91 % of control (dose: 6.25 mg/kg/injection, schedule: Q01DX009 (ip), vehicle: saline with Tween-80); 93 % of control under setting [11]; 93 % of control under setting [14].
